Values quoted from earlier work as cited in US6900203B2, “Optically active fluorinated vasoconstrictors, methods for making them, and anesthetic formulations comprising them” (Polium Technologies, Inc., priority 2002, dated 2005).
Read-outs that look alike come from different tables or passages of the source.

Assays:
β1 = β1 (Homo sapiens, UniProt P08588); settings: read-out: Receptor affinity β1
α1-receptors = settings: read-out: Receptor affinity α1
β2 = β2 (Homo sapiens, UniProt P07550); settings: read-out: Receptor affinity β2
[1] = test system: α2/β adrenergic receptors
[2] = test system: α1/β adrenergic receptors
α-receptors = settings: order of magnitude

Sequence of β1 (P08588 whole entry): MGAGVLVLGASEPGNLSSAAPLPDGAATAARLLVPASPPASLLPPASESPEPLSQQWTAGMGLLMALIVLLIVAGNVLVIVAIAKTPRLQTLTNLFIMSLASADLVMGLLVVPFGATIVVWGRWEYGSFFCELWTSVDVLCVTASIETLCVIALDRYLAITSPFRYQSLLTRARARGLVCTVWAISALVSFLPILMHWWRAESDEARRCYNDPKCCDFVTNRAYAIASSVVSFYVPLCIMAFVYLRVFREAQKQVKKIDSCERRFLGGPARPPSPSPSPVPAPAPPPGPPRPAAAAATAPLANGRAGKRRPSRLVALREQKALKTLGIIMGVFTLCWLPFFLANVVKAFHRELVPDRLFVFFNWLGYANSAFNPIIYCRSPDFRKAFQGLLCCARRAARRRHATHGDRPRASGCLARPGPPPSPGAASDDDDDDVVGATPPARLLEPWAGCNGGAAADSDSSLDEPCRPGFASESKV
Sequence of β2 (P07550 whole entry): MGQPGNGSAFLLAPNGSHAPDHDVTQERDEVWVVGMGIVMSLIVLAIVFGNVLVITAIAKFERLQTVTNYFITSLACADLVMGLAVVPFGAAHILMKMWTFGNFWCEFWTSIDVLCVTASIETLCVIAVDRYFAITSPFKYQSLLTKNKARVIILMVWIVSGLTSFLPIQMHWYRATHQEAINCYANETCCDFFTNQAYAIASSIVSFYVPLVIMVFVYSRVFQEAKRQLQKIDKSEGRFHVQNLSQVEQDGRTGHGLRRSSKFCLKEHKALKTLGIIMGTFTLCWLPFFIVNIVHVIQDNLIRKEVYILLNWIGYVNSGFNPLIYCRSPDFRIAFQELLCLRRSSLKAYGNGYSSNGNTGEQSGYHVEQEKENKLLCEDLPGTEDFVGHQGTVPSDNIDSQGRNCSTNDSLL

Row | binding constants with α-receptors (α-receptors) | Ki (α2-receptors; order of magnitude, read-out: binding constant with respect to α2-receptors) [nM] | SMILES | Ki (β1) [µM] | Ki (α2-receptors; read-out: Receptor affinity α2) [nM] | Ki (α1-receptors) [µM] | Ki (β2) [µM] | α2/β selectivity [1] [fold] | α1/β selectivity [2]
1 |  |  | CNC[C@H](O)c1ccc(O)c(O)c1F [(R)-2F-epinephrine] | 0.56 ± 0.03 | 67 ± 3 | ~25 | 0.11 ± 0.03 |  | 
2 |  |  | CNC[C@H](O)c1cc(O)c(O)cc1F [(R)-6F-epinephrine, 2-methylamino-1R-[(3,4-dihydroxy-6-fluoro)-phenyl]ethanol] | ~100 | 13 ± 2 | 2.5 ± 0.1 | 38 ± 7 |  | 
3 |  |  | CNC[C@@H](O)c1cc(O)c(O)cc1F [(S)-6F-epinephrine] | ~400 | 78 ± 1 | ~70 | ~90 |  | 
4 |  |  | CNC[C@@H](O)c1ccc(O)c(O)c1F [(S)-2F-epinephrine] | ~150 | 53 ± 1 | ~40 | ~25 |  | 
5 |  |  | CNC[C@@H](O)c1ccc(O)c(O)c1 [(S)-epinephrine] |  | 45 ± 3 | ~20 |  |  | 
6 |  |  | CNCC(O)c1cc(O)ccc1F (stereo not shown) [6F-phenylephrine] |  |  |  |  | 780 | 86-140 fold
7 | on the order of several |  | CNC[C@H](O)c1cccc(O)c1 [(R)-phenylephrine, 2-methylamino-1R-(3-hydroxyphenyl)ethanol] |  |  |  |  | 33 | 2-5 fold
8 |  | ~10 | CNC[C@H](O)c1ccc(O)c(O)c1 [(R)-epinephrine] |  | 13 ± 2 |  |  |  | 
